{"source": "patent US10064863B2", "about": "“Formulations of 3-(5-amino-2-methyl-4-oxo-4H-quinazolin-3-yl)-piperidine-2,6-dione” (Celgene Corporation, priority 2015, dated 2018)", "test": "Degradation of Compound A by hydrolysis", "assay_type": "physicochemical", "from_the_text": "In another aspect is an anhydrous pharmaceutical composition and dosage form. Such anhydrous forms can reduce or eliminate degradation of active ingredients in the composition resulting from heat or water exposure. For example, the addition of water (e.g., 5 percent) is widely accepted in the pharmaceutical arts as a means of simulating shelf-life, e.g., long-term storage in order to determine characteristics such as shelf-life or the stability of formulations over time. See, e.g., Jens T. Carstensen, Drug Stability: Principles & Practice, 2d. Ed., Marcel Dekker, NY, N.Y., 1995, pp. 379-80. The effect of water on a formulation can be of great significance since moisture or humidity are commonly encountered during manufacture, handling, packaging, storage, shipment, and use of formulations."}
{"smiles": "Cc1nc2cccc(N)c2c(=O)n1C1CCC(=O)NC1=O", "note": "(stereo not shown) [Compound A, 3-(5-amino-2-methyl-4-oxo-4H-quinazolin-3-yl)-piperidine-2,6-dione]", "values": [{"measurement": "degradation by hydrolysis", "value": "easily degraded by hydrolysis"}]}
